This is an account of results in US20260201008A1, “SECRETIN-DERIVED GLP1R SELECTIVE AGONISTS” (GUBRA A/S, priority 2023, published 2026).

The target in one data set is SCTR (Homo sapiens, UniProt P47872). The data set is described as follows: hSCTR potency, cAMP accumulation in CHO-K1 cells stably overexpressing hSCTR. The format is cell-based. Details: alternatively Euroscreen ES-712-AF; FAST-0161L; host or cells: CHO-K1. To be noted: cAMP accumulation. In outline:
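CHO-K1/hSCTR cells; DPBS + 0.05% casein + 0.5 mM IBMX; 30 min RT stimulation; cAMP by TR-FRET read at 1 h. Crude peptides: 5-point 10-fold dilutions, n=1. Purified: 11-point 3-fold dilutions, n=2. EC50 via variable-slope fit.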
Background: Changes in cAMP serve as a functional read-out for many G protein-coupled receptors.

The next data set has as its target GLP1R (Homo sapiens, UniProt P43220). The data set is described as follows: hGLP1R potency, cAMP accumulation in CHO-K1 cells stably overexpressing hGLP1R. It is filed as cell-based. Also on record: host or cells: CHO-K1. Conditions: for EC50: cAMP accumulation; for SCTR EC50/GLP1R EC50 ratio: cAMP accumulation in CHO-K1 cells; for Selectivity: SCTR EC50/GLP1R EC50 ratio. In outline: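 TR-FRET cAMP read-out, one hour after reagent addition, following 30 min compound exposure at RT in DPBS/0.05% casein/0.5 mM IBMX. Crude peptides: 5 points, 10-fold steps, n=1. Purified peptides: 11 points, 3-fold steps, n=2. EC50 fitted with a variable-slope sigmoid.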

Data set [1] in a line: Turbidity of crude library peptides (absorbance at 600 nm). It is filed as physicochemical. Conditions: Physical stability of peptides. A digest of the protocol:
(§1)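 Fibril formation is scored as average ThT fluorescence from duplicate samples monitored for 72 h at 40° C with shaking stress. Turbidity is the absorbance at 600 nm taken before heating. Peptide concentration was 267 μM at pH 4.0 or pH 7.0.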

Data set [2] is described as follows: Fibril formation of crude library peptides (Thioflavin T). To be noted: Physical stability of peptides. The format is physicochemical. Also on record: key: average ThT fluorescence emission at 480 nm (ex 450 nm), raw units. A digest of the protocol:
as §1

The mark [3] stands for this setting: CHO-K1 cells overexpressing hSCTR, read-out: hSCTR pEC50 (converted).
Where [4] appears, read: CHO-K1 cells overexpressing hGLP1R, read-out: hGLP1R pEC50 (converted).
Where [5] appears, read: selectivity for hGLP1R over hSCTR.
Where [6] appears, read: CHO-K1 cells stably overexpressing hSCTR, read-out: hSCTR potency (pEC50) (converted).
The mark [7] stands for this setting: CHO-K1 cells stably overexpressing hGLP1R, read-out: hGLP1R potency (pEC50) (converted).
Setting [8] is: selectivity ratio, hSCTR vs hGLP1R.
The mark [9] stands for this setting: CHO-K1 cells overexpressing hSCTR, read-out: pEC50 hSCTR (converted).
The mark [10] stands for this setting: CHO-K1 cells overexpressing hGLP1R, read-out: pEC50 hGLPR1 (converted).

Each structure is given as a SMILES string. Where two headings read alike, the source gives them in different places. Numbered stars: 1 amine (or outer) side, 2 acyl side, 3 side chain; on linkers, the order of the positions; unused ones are H or OH. Square brackets hold non-standard residues; d marks the D form. Side chains are listed from the residue outwards. Peptide text beside a SMILES is read from it. * marks the point of attachment. C20 diacid = O=C(O)CCCCCCCCCCCCCCCCCCC(=O)*; γGlu = O=C(O)[C@H](CCC(=O)[*:2])N[*:1]; AEEA = NCCOCCOCC(=O)O; Aib = CC(C)(N)C(=O)O

Sequence of SCTR (P47872 23-440): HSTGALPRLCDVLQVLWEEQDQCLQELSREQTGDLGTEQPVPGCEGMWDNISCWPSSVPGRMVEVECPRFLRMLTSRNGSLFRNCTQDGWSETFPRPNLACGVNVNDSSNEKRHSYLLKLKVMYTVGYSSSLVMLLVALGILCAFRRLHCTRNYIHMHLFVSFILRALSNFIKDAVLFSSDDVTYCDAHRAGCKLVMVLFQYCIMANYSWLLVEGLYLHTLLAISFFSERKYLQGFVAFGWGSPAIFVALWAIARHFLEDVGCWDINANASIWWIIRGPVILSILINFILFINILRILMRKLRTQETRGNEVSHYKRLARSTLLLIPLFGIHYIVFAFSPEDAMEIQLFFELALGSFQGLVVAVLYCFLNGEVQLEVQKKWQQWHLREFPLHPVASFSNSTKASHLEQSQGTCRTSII
Sequence of GLP1R (P43220 24-463): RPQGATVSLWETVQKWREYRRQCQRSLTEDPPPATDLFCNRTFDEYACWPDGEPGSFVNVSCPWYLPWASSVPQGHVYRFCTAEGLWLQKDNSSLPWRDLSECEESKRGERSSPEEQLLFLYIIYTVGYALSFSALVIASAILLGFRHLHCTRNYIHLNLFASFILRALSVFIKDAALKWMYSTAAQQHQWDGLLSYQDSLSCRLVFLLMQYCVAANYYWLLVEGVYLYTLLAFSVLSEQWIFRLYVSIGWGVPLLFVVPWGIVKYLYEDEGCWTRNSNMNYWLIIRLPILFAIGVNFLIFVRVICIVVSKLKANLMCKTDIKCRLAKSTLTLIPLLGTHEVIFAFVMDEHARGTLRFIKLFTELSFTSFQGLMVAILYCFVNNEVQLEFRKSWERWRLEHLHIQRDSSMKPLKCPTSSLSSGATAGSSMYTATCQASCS

Take `CC(C)C[C@H](NC(=O)[C@H](Cc1ccccc1)NC(=O)[C@H](CCCNC(=N)N)NC(=O)[C@H](CCC(N)=O)NC(=O)C(C)(C)NC(=O)C(C)(C)NC(=O)[C@H](C)NC(=O)[C@H](CCC(=O)O)NC(=O)[C@H](CCC(=O)O)NC(=O)[C@H](CCCCNC(=O)COCCOCCNC(=O)COCCOCCNC(=O)CC[C@H](NC(=O)CCCCCCCCCCCCCCCCCCC(=O)O)C(=O)O)NC(=O)[C@H](CC(C)C)NC(=O)[C@H](Cc1ccc(O)cc1)NC(=O)[C@H](CO)NC(=O)[C@@H](NC(=O)[C@H](CC(=O)O)NC(=O)[C@H](CO)NC(=O)[C@@H](NC(=O)[C@H](Cc1ccccc1)NC(=O)[C@@H](NC(=O)CNC(=O)[C@H](CCC(=O)O)NC(=O)C(C)(C)NC(=O)[C@@H](N)Cc1c[nH]cn1)[C@@H](C)O)[C@@H](C)O)C(C)C)C(=O)N[C@@H](CCC(=O)O)C(=O)N[C@@H](Cc1c[nH]cn1)C(=O)N[C@@H](CC(C)C)C(=O)N[C@H](C(N)=O)C(C)C` [compound 152] (H-H[Aib]EGTFTSDVSYLK([AEEA-AEEA-γGlu-C20 diacid])EEA[Aib][Aib]QRFLEHLV-NH2): the values for the EC50 at SCTR (setting [3]) and on GLP1R (setting [4]) were 3980 nM and 0.0126 nM, respectively. Moreover, the “SCTR EC50/GLP1R EC50 ratio” value on GLP1R (setting [5]) amounted to 367578. Besides, the “Turbidity (pH 7)” value in data set [1] was found to be 0.08. This molecule also showed a Fibril formation in data set [2] of 3105.

With `CC[C@H](C)[C@H](NC(=O)[C@H](Cc1ccccc1)NC(=O)[C@H](CCCNC(=N)N)NC(=O)[C@H](CCC(N)=O)NC(=O)[C@H](CC(C)C)NC(=O)[C@H](C)NC(=O)[C@H](C)NC(=O)CNC(=O)[C@H](CCC(=O)O)NC(=O)[C@H](CC(C)C)NC(=O)[C@H](CC(C)C)NC(=O)[C@H](Cc1c[nH]c2ccccc12)NC(=O)[C@H](CO)NC(=O)[C@H](Cc1c[nH]c2ccccc12)NC(=O)[C@H](CC(=O)O)NC(=O)[C@H](CO)NC(=O)[C@@H](NC(=O)[C@H](Cc1ccccc1)NC(=O)[C@@H](NC(=O)CNC(=O)[C@H](CCC(=O)O)NC(=O)C(C)(C)NC(=O)[C@@H](N)Cc1c[nH]cn1)[C@@H](C)O)[C@@H](C)O)C(=O)N[C@@H](CCC(N)=O)C(=O)N[C@@H](Cc1c[nH]c2ccccc12)C(=O)N[C@@H](CC(C)C)C(=O)N[C@H](C(N)=O)C(C)C` [compound 191] (H-H[Aib]EGTFTSDWSWLLEGAALQRFIQWLV-NH2), the EC50 at SCTR (setting [6]) is 63.1 nM; at GLP1R (setting [7]), 0.0794 nM. Besides, at GLP1R (setting [8]), the “SCTR EC50/GLP1R EC50 ratio” value worked out at 904. Also, in data set [1], the “Turbidity (pH 7)” value is on record as 0.61. The molecule further returned a Fibril formation in data set [2] of 120310.

As to `CC[C@H](C)[C@H](NC(=O)[C@H](Cc1ccccc1)NC(=O)[C@H](CCCNC(=N)N)NC(=O)[C@H](CCC(N)=O)NC(=O)[C@H](CC(C)C)NC(=O)[C@H](C)NC(=O)[C@H](C)NC(=O)CNC(=O)[C@H](CCC(=O)O)NC(=O)[C@H](CC(C)C)NC(=O)[C@H](CC(C)C)NC(=O)CNC(=O)[C@H](CO)NC(=O)C(C)(C)NC(=O)[C@H](CC(=O)O)NC(=O)[C@H](CO)NC(=O)[C@@H](NC(=O)[C@H](Cc1ccccc1)NC(=O)[C@@H](NC(=O)CNC(=O)[C@H](CCC(=O)O)NC(=O)C(C)(C)NC(=O)[C@@H](N)Cc1c[nH]cn1)[C@@H](C)O)[C@@H](C)O)C(=O)N[C@@H](CCC(N)=O)C(=O)N[C@@H](Cc1c[nH]c2ccccc12)C(=O)N[C@@H](CC(C)C)C(=O)N[C@H](C(N)=O)C(C)C` [compound 105] (H-H[Aib]EGTFTSD[Aib]SGLLEGAALQRFIQWLV-NH2), the EC50 on SCTR (setting [3]) was 1580 nM; at GLP1R (setting [4]), 0.1 nM. Moreover, on GLP1R (setting [5]), the “SCTR EC50/GLP1R EC50 ratio” value is 14710. The “Turbidity (pH 7)” value in data set [1] was found to be 0.12. Besides, the Fibril formation in data set [2] is on record as 4216.

For `CC(C)C[C@H](NC(=O)[C@H](Cc1ccccc1)NC(=O)[C@H](CCCNC(=N)N)NC(=O)[C@H](CCC(N)=O)NC(=O)[C@H](CO)NC(=O)[C@H](C)NC(=O)[C@H](C)NC(=O)[C@@H](NC(=O)[C@H](CCC(=O)O)NC(=O)[C@H](CCCCNC(=O)COCCOCCNC(=O)COCCOCCNC(=O)CC[C@H](NC(=O)CCCCCCCCCCCCCCCCCCC(=O)O)C(=O)O)NC(=O)[C@H](CC(C)C)NC(=O)[C@H](CCCNC(=N)N)NC(=O)[C@H](CO)NC(=O)[C@@H](NC(=O)[C@H](CC(=O)O)NC(=O)[C@H](CO)NC(=O)[C@@H](NC(=O)[C@H](Cc1ccccc1)NC(=O)[C@@H](NC(=O)CNC(=O)[C@H](CCC(=O)O)NC(=O)C(C)(C)NC(=O)[C@@H](N)Cc1c[nH]cn1)[C@@H](C)O)[C@@H](C)O)C(C)C)[C@@H](C)O)C(=O)N[C@@H](CCC(=O)O)C(=O)N[C@@H](Cc1c[nH]cn1)C(=O)N[C@@H](CC(C)C)C(=O)N[C@H](C(N)=O)C(C)C` [compound 71] (H-H[Aib]EGTFTSDVSRLK([AEEA-AEEA-γGlu-C20 diacid])ETAASQRFLEHLV-NH2), the EC50 is 1000 nM at SCTR (setting [9]) and 0.0631 nM at GLP1R (setting [10]). The Selectivity on GLP1R came to 13611. Further, in data set [1], the “Turbidity (pH 7)” value was determined as 0.08. The molecule further gave a Fibril formation in data set [2] of 231646.

In the case of `CC[C@H](C)[C@H](NC(=O)[C@H](Cc1ccccc1)NC(=O)[C@H](CCCNC(=N)N)NC(=O)[C@H](CCC(N)=O)NC(=O)[C@H](CC(C)C)NC(=O)[C@H](C)NC(=O)[C@H](C)NC(=O)CNC(=O)[C@H](CCC(=O)O)NC(=O)[C@H](CC(C)C)NC(=O)[C@H](CC(C)C)NC(=O)[C@H](Cc1ccccc1)NC(=O)[C@H](CO)NC(=O)[C@H](Cc1ccc(O)cc1)NC(=O)[C@H](CC(=O)O)NC(=O)[C@H](CO)NC(=O)[C@@H](NC(=O)[C@H](Cc1ccccc1)NC(=O)[C@@H](NC(=O)CNC(=O)[C@H](CCC(=O)O)NC(=O)C(C)(C)NC(=O)[C@@H](N)Cc1c[nH]cn1)[C@@H](C)O)[C@@H](C)O)C(=O)N[C@@H](CCC(N)=O)C(=O)N[C@@H](Cc1c[nH]c2ccccc12)C(=O)N[C@@H](CC(C)C)C(=O)N[C@H](C(N)=O)C(C)C` [compound 202] (H-H[Aib]EGTFTSDYSFLLEGAALQRFIQWLV-NH2), the EC50 was 39.8 nM at SCTR (setting [6]) and 0.0398 nM on GLP1R (setting [7]). Moreover, the “SCTR EC50/GLP1R EC50 ratio” value at GLP1R (setting [8]) is recorded as 820. Moreover, in data set [1], the “Turbidity (pH 7)” value was 0.60. In data set [2], this molecule yielded a Fibril formation of 260000.

Consider `CC[C@H](C)[C@H](NC(=O)[C@H](Cc1ccccc1)NC(=O)[C@H](CCCNC(=N)N)NC(=O)[C@H](CCC(N)=O)NC(=O)[C@H](CC(C)C)NC(=O)[C@H](C)NC(=O)[C@H](C)NC(=O)CNC(=O)[C@H](CCC(=O)O)NC(=O)[C@H](CC(C)C)NC(=O)[C@H](CC(C)C)NC(=O)[C@H](CCCNC(=N)N)NC(=O)[C@H](CO)NC(=O)[C@@H](NC(=O)[C@H](CC(=O)O)NC(=O)[C@H](CO)NC(=O)[C@@H](NC(=O)[C@H](Cc1ccccc1)NC(=O)[C@@H](NC(=O)CNC(=O)[C@H](CCC(=O)O)NC(=O)C(C)(C)NC(=O)[C@@H](N)Cc1c[nH]cn1)[C@@H](C)O)[C@@H](C)O)[C@@H](C)CC)C(=O)N[C@@H](CCC(N)=O)C(=O)N[C@@H](Cc1c[nH]c2ccccc12)C(=O)N[C@@H](CC(C)C)C(=O)N[C@H](C(N)=O)C(C)C` [compound 115] (H-H[Aib]EGTFTSDISRLLEGAALQRFIQWLV-NH2), for which the figures for the EC50 on SCTR (setting [3]) and at GLP1R (setting [4]) were 15.8 nM and 0.0398 nM, respectively. The “SCTR EC50/GLP1R EC50 ratio” value at GLP1R (setting [5]) stood at 459. Further, the “Turbidity (pH 7)” value in data set [1] amounted to 0.48. The molecule also registered a Fibril formation in data set [2] of 6433.

Turning to `CC(C)C[C@H](NC(=O)[C@H](Cc1ccccc1)NC(=O)[C@H](CCCNC(=N)N)NC(=O)[C@H](CCC(N)=O)NC(=O)[C@@H](NC(=O)[C@H](C)NC(=O)[C@H](C)NC(=O)[C@H](CCC(=O)O)NC(=O)[C@H](CCC(=O)O)NC(=O)[C@H](CCCCNC(=O)COCCOCCNC(=O)COCCOCCNC(=O)CC[C@H](NC(=O)CCCCCCCCCCCCCCCCCCC(=O)O)C(=O)O)NC(=O)[C@H](CC(C)C)NC(=O)[C@H](CCCNC(=N)N)NC(=O)[C@H](CO)NC(=O)[C@@H](NC(=O)[C@H](CC(=O)O)NC(=O)[C@H](CO)NC(=O)[C@@H](NC(=O)[C@H](Cc1ccccc1)NC(=O)[C@@H](NC(=O)CNC(=O)[C@H](CCC(=O)O)NC(=O)C(C)(C)NC(=O)[C@@H](N)Cc1c[nH]cn1)[C@@H](C)O)[C@@H](C)O)C(C)C)[C@@H](C)O)C(=O)N[C@@H](CCC(=O)O)C(=O)N[C@@H](Cc1c[nH]cn1)C(=O)N[C@@H](CC(C)C)C(=O)N[C@H](C(N)=O)C(C)C` [compound 65] (H-H[Aib]EGTFTSDVSRLK([AEEA-AEEA-γGlu-C20 diacid])EEAATQRFLEHLV-NH2), the EC50 on SCTR (setting [9]) was 25.1 nM; on GLP1R (setting [10]) it was 0.00316 nM. The Selectivity at GLP1R is on record as 6482. The “Turbidity (pH 7)” value in data set [1] is on record as 0.09. Also, the Fibril formation in data set [2] is given as 9674.
